# Source: patent US20080220449A1, “Biomarkers and assays for Alzheimer's disease” (OLIGOMERIX, INC., priority 2007, published 2008)
# Entries after “also recorded” stand apart in the source; their conditions may differ.
# Columns and labels:
# soluble tau oligomer = assay: Modified ELISA (mAb HT7 capture, biotinylated mAb HT7 reporter) for curcumin effect on tau-oligomer levels in CSF; type: biochemical, human
# Procedure: FIG. 6 is a schematic diagram illustrating an exemplary method and assay that utilizes standard and modified ELISA to detect tau-monomer, tau pT217, soluble tau oligomer, and tau-amyloid-beta 1-42 complex. Formation of tau oligomers was analyzed using two different ELISA methods to provide verified data. The “modified” ELISA uses the same monoclonal antibody for capture and detection. Insoluble aggregates are removed in the ELISA procedure during washing steps. Only soluble aggregates of tau, not monomers, are detected with this ELISA because the detection and reporter antibody recognizes an epitope which is present only once within tau. […]
# Modified ELISA to determine tau-oligomer levels in CSF: Tau oligomer level was determined using modified sandwich ELISA where mAb HT7 against tau was used for capture and biotinylated mAb HT7 as the reporter. […]
# Sample preparation: A 5 mM stock solution of curcumin was prepared in 100% ethanol. […] The incubated samples were diluted to 500 μL in buffer and analyzed for tau-oligomers by modified ELISA as described in FIG. 6. […]
# (§1) Data analysis for Example 11 (FIG. 13) and Example 12 (FIG. 14) was measured as a percent decrease in tau-oligomers, upon incubation with curcumin. […]
# (§2) FU=(Average fluorescence of triplicate wells for each sample-average fluorescence of the antibody blank wells). […]
# [1] = biological target: T1, tau oligomers containing tau without c-terminal truncation (Homo sapiens, UniProt P10636); assay: ELISA with mAb T46 capture and pAb A11 reporter for curcumin effect on tau-oligomer levels in CSF; type: biochemical; details: same CSF sample from a patient having severe AD; sample preparation as in Example 11
# T1 construct: only tau oligomers containing tau without c-terminal truncation would be detected; from tissue; host or cells: cerebrospinal fluid of a severe AD patient (post mortem, New York Brain Bank)
# Procedure: Tau oligomer levels based on oligomer conformation was determined using a standard sandwich ELISA where mAb HT7 against tau was used for capture, as mentioned in FIG. 2 (Example 1). After incubation with CSF samples (see FIG. 2 legend) the plates were washed and 100 uL rabbit pAb A11, specific for protein oligomer conformation, was diluted 1000-fold and added to each well. The plate was incubated for one hour at 37° C. and washed. Biotinylated goat anti-rabbit antibody was diluted 10,000-fold in PBST and 50 μL was added to each well. Plates were incubated for 30 min. at 37° C. Detection was done using HRP-neutravidin and QuantaBlu fluorogenic substrate as described for FIG. 2 (Example 1). The results are shown in FIG. 8 (4 severe AD, 5 AD and 3 non-AD CSF samples were tested). Here the assay is specific for tau in association with oligomer conformation and can detect soluble tau oligomers. The combination of a monoclonal antibody against tau with an antibody specific for oligomer conformation is novel. […]
# Tau oligomer levels in CSF were determined using antibodies specific for oligomer conformation and tau with intact c-terminus. […]
# as §1, §2
# T1 sequence (P10636 1-441 isoform P10636-8): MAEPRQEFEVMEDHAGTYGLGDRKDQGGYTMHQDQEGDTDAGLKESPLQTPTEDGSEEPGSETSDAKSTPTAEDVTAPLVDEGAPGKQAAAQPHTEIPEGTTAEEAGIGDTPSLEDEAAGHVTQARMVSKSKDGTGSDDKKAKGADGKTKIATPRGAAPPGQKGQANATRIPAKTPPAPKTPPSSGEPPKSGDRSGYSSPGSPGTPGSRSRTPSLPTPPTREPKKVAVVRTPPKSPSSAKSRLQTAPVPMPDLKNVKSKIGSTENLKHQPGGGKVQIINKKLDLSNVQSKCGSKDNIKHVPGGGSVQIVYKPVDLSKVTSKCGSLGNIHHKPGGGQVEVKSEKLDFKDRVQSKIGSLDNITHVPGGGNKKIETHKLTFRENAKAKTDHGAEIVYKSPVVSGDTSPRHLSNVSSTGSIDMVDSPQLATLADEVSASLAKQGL
structure (smiles),measurement,setting,value
COc1cc(/C=C/C(=O)CC(=O)/C=C/c2ccc(O)c(OC)c2)ccc1O [curcumin],percent decrease in tau-oligomers upon incubation with curcumin (FIG. 13),"soluble tau oligomer; CSF from three different severe AD patients, 5 uL of 20 uM curcumin in total volume of 100 uL, one hour at 37° C.",disruption of soluble tau oligomer; also recorded: reduction of tau oligomer levels
same,"percent decrease in tau-oligomers upon incubation with curcumin (FIG. 14, modified ELISA format)","soluble tau oligomer; one CSF sample from a patient having severe AD, sample preparation as in Example 11",reduction of tau oligomer levels
same,"percent decrease in tau-oligomers upon incubation with curcumin (FIG. 14, mAb T46 / pAb A11 format)",[1],reduction of tau oligomer levels
